In publication PMC12249582, “Ruxolitinib Modulates P-Glycoprotein Function, Delays T Cell Activation, and Impairs CCL19 Chemokine-Directed Migration in Human Cytotoxic T Lymphocytes” (International Journal of Molecular Sciences, 2025):

Target: T1, P-glycoprotein (Pgp/ABCB1) (Homo sapiens, UniProt P08183)
T1 construct: human Pgp stably expressed in NIH-3T3 MDR1 cells (cells and raw membrane preparations)
Experiment: calcein-AM efflux inhibition in NIH-3T3 MDR1 cells (IC50); vanadate-sensitive ATPase stimulation in Pgp membranes
Type: cell-based

T1 sequence (P08183 whole entry): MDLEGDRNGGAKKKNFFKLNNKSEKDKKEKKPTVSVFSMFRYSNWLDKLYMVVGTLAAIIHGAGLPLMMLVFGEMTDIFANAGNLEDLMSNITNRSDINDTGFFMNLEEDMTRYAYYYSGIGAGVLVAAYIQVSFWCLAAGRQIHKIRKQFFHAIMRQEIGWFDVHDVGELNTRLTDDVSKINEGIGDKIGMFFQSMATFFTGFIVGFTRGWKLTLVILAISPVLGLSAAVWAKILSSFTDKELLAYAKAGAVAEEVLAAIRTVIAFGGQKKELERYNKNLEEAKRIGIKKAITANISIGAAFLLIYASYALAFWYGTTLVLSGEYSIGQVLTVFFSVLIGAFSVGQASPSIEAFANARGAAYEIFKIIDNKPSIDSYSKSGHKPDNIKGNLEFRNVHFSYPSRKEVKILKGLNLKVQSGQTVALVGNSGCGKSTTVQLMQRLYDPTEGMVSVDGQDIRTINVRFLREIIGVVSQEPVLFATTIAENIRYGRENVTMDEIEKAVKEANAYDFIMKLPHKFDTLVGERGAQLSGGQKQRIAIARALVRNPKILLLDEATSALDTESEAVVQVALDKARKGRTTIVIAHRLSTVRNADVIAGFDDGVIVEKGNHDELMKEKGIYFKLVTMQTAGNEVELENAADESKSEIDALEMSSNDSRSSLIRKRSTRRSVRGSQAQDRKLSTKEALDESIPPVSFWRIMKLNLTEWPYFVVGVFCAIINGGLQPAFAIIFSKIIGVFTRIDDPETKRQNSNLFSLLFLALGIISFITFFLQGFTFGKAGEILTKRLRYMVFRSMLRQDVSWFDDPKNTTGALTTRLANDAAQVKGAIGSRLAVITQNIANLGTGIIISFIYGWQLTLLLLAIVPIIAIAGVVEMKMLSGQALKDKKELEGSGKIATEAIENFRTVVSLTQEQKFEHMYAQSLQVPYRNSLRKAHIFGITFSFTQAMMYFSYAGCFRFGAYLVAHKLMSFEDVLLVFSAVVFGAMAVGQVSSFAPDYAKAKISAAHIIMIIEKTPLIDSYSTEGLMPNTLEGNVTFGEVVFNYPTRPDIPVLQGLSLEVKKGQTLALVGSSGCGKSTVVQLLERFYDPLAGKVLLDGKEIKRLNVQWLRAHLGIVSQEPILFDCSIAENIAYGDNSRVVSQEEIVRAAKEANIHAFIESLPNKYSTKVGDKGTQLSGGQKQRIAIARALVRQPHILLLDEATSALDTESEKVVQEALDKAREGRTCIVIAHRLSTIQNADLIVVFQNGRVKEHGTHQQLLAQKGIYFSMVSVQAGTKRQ

`N#CC[C@H](C1CCCC1)n1cc(-c2ncnc3[nH]ccc23)cn1` [RUX, ruxolitinib] gave an IC50 of about 13 µM.
